# What was measured:
# A549 = test: Antiproliferative against human A549 cells assessed as reduction in cell viability by MTT assay; format: functional, cell-based
# Histone deacetylase 1 [1] = target: T1, Histone deacetylase 1 (Homo sapiens, UniProt Q13547); settings: dose 100.0 nM
# Description: Inhibition of HDAC1 (unknown origin) at 100 nM relative to control
# MCF7 = test: Antiproliferative against human MCF-7 cells assessed as reduction in cell viability by MTT assay; format: functional, cell-based
# [2] = target: T2, Hepatocyte growth factor receptor (Homo sapiens, UniProt P08581); settings: dose 100.0 nM
# Description: Inhibition of c-MET (unknown origin) at 100 nM relative to control
# Histone deacetylase 1 [3] = target: T1, Histone deacetylase 1; test: Inhibition of HDAC1 (unknown origin)
# [4] = target: T2, Hepatocyte growth factor receptor; test: Inhibition of c-MET (unknown origin)
# T1 sequence (Q13547 whole entry): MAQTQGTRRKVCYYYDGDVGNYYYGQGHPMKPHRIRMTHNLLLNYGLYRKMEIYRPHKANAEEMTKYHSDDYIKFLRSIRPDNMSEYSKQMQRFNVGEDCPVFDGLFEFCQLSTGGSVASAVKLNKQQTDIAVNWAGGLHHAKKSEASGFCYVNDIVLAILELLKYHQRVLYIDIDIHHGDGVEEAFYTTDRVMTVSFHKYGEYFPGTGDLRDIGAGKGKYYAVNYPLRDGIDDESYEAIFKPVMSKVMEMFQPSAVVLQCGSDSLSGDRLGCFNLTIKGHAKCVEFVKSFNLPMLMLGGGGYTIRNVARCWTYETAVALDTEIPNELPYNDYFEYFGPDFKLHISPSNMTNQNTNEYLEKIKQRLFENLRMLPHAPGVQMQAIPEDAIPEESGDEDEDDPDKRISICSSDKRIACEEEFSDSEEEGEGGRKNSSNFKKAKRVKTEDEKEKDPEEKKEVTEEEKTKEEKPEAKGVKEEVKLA
# T2 sequence (P08581 whole entry): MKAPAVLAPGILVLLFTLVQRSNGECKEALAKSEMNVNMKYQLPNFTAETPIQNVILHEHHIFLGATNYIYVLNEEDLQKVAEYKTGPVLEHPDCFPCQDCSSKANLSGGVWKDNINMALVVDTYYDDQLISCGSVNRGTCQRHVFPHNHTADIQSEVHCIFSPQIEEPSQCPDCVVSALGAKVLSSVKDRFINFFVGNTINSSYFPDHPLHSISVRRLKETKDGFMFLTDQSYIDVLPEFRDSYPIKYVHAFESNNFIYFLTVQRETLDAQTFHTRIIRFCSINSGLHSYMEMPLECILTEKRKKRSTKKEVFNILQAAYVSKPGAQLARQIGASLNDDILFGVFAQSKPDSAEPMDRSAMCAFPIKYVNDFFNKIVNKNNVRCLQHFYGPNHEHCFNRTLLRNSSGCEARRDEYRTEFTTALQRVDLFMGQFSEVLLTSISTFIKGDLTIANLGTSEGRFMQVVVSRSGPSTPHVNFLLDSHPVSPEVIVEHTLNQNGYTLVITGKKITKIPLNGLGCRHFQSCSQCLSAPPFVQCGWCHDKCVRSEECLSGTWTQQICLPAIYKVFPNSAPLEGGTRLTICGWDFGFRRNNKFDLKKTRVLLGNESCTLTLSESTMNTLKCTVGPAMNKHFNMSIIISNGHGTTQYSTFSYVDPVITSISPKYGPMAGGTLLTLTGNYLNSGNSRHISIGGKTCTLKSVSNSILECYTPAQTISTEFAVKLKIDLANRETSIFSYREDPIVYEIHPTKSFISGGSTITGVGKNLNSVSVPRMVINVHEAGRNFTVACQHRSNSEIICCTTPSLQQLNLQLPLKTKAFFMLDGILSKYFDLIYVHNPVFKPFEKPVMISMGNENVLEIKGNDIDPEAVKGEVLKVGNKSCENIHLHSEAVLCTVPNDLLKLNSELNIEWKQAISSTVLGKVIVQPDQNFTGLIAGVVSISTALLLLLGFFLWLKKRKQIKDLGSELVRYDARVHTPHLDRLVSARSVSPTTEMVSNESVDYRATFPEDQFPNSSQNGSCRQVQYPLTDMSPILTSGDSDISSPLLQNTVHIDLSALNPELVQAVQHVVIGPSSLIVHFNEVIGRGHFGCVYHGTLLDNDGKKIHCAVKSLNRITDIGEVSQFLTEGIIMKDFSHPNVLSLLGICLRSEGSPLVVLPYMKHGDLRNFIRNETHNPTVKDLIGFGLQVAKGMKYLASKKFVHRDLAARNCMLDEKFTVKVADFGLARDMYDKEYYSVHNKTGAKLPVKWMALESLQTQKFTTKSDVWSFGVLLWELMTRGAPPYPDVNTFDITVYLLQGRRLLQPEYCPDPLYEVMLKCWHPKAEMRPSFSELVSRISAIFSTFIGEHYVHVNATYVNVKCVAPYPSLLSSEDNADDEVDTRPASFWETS
SMILES,IC50 (A549) [nM],inhibition (Histone deacetylase 1 [1]) [%],IC50 (MCF7) [nM],inhibition [2] [%],IC50 (Histone deacetylase 1 [3]) [nM],IC50 [4] [nM]
COc1cc2nccc(Oc3ccc(NC(=O)C4(C(=O)Nc5ccc(F)cc5)CC4)cc3)c2cc1OC [CABOZANTINIB],7210,20.9,5400,–,–,–
COc1cc2c(Oc3ccc(NC(=O)NCCc4ccccc4)cc3)ccnc2cc1OCCCCCCC(=O)NO,9040,88,4120,14.3,–,–
COc1cc2c(Oc3ccc(NC(=O)N/N=C/c4ccccc4)cc3)ccnc2cc1OCCCCCCC(=O)NO,3700,–,610,75.9,–,–
COc1cc2c(Oc3ccc(NC(=O)Nc4ccc(C(F)(F)F)cc4Cl)cc3)ccnc2cc1OCCCCCCC(=O)NO,970,28.1,500,93.1,148,41.2
COc1cc2c(Oc3ccc(NC(=O)NC4CCCCC4)cc3)ccnc2cc1OCCCCCCC(=O)NO,850,14.1,600,38,45.2,21.4
COc1cc2c(Oc3ccc(NC(=O)Nc4ccccc4F)cc3)ccnc2cc1OCCCCCCC(=O)NO,870,32.1,660,95.5,131,39.2
COc1cc2c(Oc3ccc(NC(=O)NNC(=O)c4cccc(C)c4)cc3)ccnc2cc1OCCCCCCC(=O)NO,8190,67.6,5830,29.9,–,–
COc1cc2c(Oc3ccc(NC(=O)Nc4ccccc4)cc3)ccnc2cc1OCCCCCCC(=O)NO,1650,23.1,1040,48,75,17
COc1cc2c(Oc3ccc(NC(=O)C4(C(=O)Nc5ccc(F)cc5)CC4)cc3F)ccnc2cc1OCCCN1CCOCC1 [FORETINIB],910,38.6,560,–,–,–

# Further compounds by falling IC50 (A549), results first:
IC50 (A549) [nM],inhibition (Histone deacetylase 1 [1]) [%],IC50 (MCF7) [nM],inhibition [2] [%],IC50 (Histone deacetylase 1 [3]) [nM],IC50 [4] [nM],SMILES
16200,–,6280,31.9,–,–,COc1ccccc1NC(=O)Nc1ccc(Oc2ccnc3cc(OCCCCCCC(=O)NO)c(OC)cc23)cc1
7780,10.4,1610,81.5,–,–,COc1cc2c(Oc3ccc(NC(=O)N/N=C/c4ccccc4F)cc3)ccnc2cc1OCCCCCCC(=O)NO
5490,26.4,3430,44.7,–,–,COc1cc2c(Oc3ccc(NC(=O)Nc4ccc(C)cc4C)cc3)ccnc2cc1OCCCCCCC(=O)NO
5280,76.6,1080,28.6,–,–,COc1cc2c(Oc3ccc(NC(=O)Nc4ccccc4C(F)(F)F)cc3)ccnc2cc1OCCCCCCC(=O)NO
5020,40.9,5150,94.8,–,–,COc1cc2c(Oc3ccc(NC(=O)Nc4ccc(Cl)c(C(F)(F)F)c4)cc3)ccnc2cc1OCCCCCCC(=O)NO
4920,56.1,1360,24.2,–,–,COc1cc2c(Oc3ccc(NC(=O)N/N=C/c4ccc(F)cc4)cc3)ccnc2cc1OCCCCCCC(=O)NO
3130,11.7,3200,29.8,–,–,COc1cc2c(Oc3ccc(NC(=O)Nc4ccc(OC(F)(F)F)cc4)cc3)ccnc2cc1OCCCCCCC(=O)NO
2820,34.4,2450,38.5,–,–,COc1cc2c(Oc3ccc(NC(=O)NNC(=O)c4ccccc4)cc3)ccnc2cc1OCCCCCCC(=O)NO
2420,28.7,3600,81.4,–,–,COc1cc2c(Oc3ccc(NC(=O)NNC(=O)c4ccccc4F)cc3)ccnc2cc1OCCCCCCC(=O)NO
2010,66.6,1240,25.7,–,–,COc1cc2c(Oc3ccc(NC(=O)Nc4cccc(C)c4)cc3)ccnc2cc1OCCCCCCC(=O)NO
1910,45.2,2780,30.4,–,–,COc1cc2c(Oc3ccc(NC(=O)Nc4ccccc4Cl)cc3)ccnc2cc1OCCCCCCC(=O)NO

# — ChEMBL document CHEMBL4699570, “Design, synthesis and biological evaluation of novel c-Met/HDAC dual inhibitors” (Bioorg Med Chem Lett, 2020)
